Assays:
PSN-1 cells [1] = experiment: 3D spheroid cytotoxicity, acid phosphatase (APH) assay, PSN-1; conditions: read-out: IC50 ±S.D. PSN-1 (3D cytotoxicity); spheroids, 72 h, APH test
Protocol: The PDAC cancer spheroids were treated with tested compounds for 72 h, and cell viability was assessed by means of the acid phosphatase (APH) assay (Table 3).
An APH-modified assay was used for determining cell viability in 3D spheroids, as previously described [61]. Briefly, the pre-seeded spheroids were treated with fresh medium containing the compound to be studied at the appropriate concentration (range 2.5–200 μM). Triplicate cultures were established for each treatment. After 72 h, each well was treated with 100 μL of the assay buffer (0.1 M sodium acetate, 0.1% Triton-X-100, supplemented with ImmunoPure p-nitrophenyl phosphate; Sigma Chemical Co., Ltd.) and, following 3 h of incubation, 10 μL of 1 M NaOH solution was added. […] The mean absorbance for each drug dose was expressed as a percentage of the control untreated well absorbance (T/C) and plotted vs. drug concentration. […] The evaluation was based on means from at least four independent experiments.

recombinant human HSP90 = recombinant human HSP90 (Homo sapiens, UniProt P07900); experiment: HSP90 inhibition assay (Transcreener ADP kit); assay type: biochemical; conditions: 1.5 µM compound (equivalent doses)
Protocol: The in vitro inhibitory activity of tested compounds on recombinant human HSP90 was assessed by The Transcreener™ ADP kit (Bellbrook Labs) according to the manufacturer’s protocol. Human recombinant HSP90 protein was incubated with tested compounds in the presence of 250 μM ATP at 37 °C for 30 min, 4°C for 30 min and ATPase activity was stopped via the addition of the stop and detect buffer. Following this, samples were incubated for 1 h at room temperature with the ADP2 Antibody and the ADP Alexa594 Tracer. The fluorescence intensity polarization of samples was measured with a Tecan plate reader (Tecan Infinite® M200). The evaluation was based on means from at least three independent experiments.

[2] = Body weight changes of LLC-bearing mice; assay type: in vivo; conditions: LLC-bearing C57BL mice, 5i 20 mg kg−1 daily i.p.
PSN-1 cells [3] = experiment: Cellular lactate production; assay type: cell-based, human; conditions: IC50 concentrations
Protocol: (§1) Cells were treated with DAP or representative compounds at IC50 concentrations and the changes in OCR and in the intracellular lactate formation were monitored.
PSN-1 cells (2 × 10^5) were seeded in a six-well plate in a growth medium (4 mL). After 24 h, cells were incubated for 60 min with IC50 concentrations of tested compounds. Changes in lactate production were assessed via colorimetric microplate assay (Lactate assay kit®, Merk, St. Louis, MO, USA) according to the manufacturer’s instructions. The intracellular lactate concentration was detected by measuring the absorbance of each well at 570 nm, using a Bio-Rad 680 microplate reader.

PSN-1 cells [4] = experiment: Cellular oxygen consumption (Mito-ID Extracellular O2 Sensor Kit); assay type: cell-based, human; conditions: IC50 concentrations
Protocol: as §1
PSN-1 cells (2 × 10^5) were seeded in a six-well plate in growth medium (4 mL). After 24 h, cells were incubated for 60 min with IC50 concentrations of tested compounds. Subsequently, oxygen consumption was assessed by Mito-ID® Extracellular O2 Sensor Kit according to manufacturer’s instructions. Fluorescence was measured using a Tecan microplate reader (Ex 340–400 nm, Em 630–680 nm).

BxPC-3 cells = experiment: 3D spheroid cytotoxicity, acid phosphatase (APH) assay, BxPC-3; conditions: read-out: IC50 ±S.D. BxPC-3 (3D cytotoxicity); spheroids, 72 h, APH test

Cn1cc(-c2nnc(N)nc2-c2cn(C)c3ccc(F)cc23)c2ccccc21 [5i]
IC50 (PSN-1 cells [1]): 4.9 ± 0.8 µM | decrease of HSP90 catalytic activity (recombinant human HSP90): 60–80% | body weight loss (in words) [2]: lower than that induced by cisplatin and gemcitabine | lactate production (PSN-1 cells [3]): more potent than DAP | cellular oxygen consumption (OCR) (PSN-1 cells [4]): more effective than DAP | IC50 (BxPC-3 cells): 34.1 ± 1.5 µM
